Assay results from patent US12168639B2 (priority 2013, dated 2024).

How the values were obtained:
[1] = system: Isolated mitochondria from brain; assay type: cell-based, rat
[2] = system: Isolated mitochondria from liver; assay type: cell-based, rat
rats [3] = conditions: rat, in vivo
rats [4] = conditions: rat, in vivo; remark: listed apart in the source
[5] = rat, in vivo
[6] = system: rats fed a high-fat diet and sucrose supplemented (5%) drinking water; conditions: rat, in vivo
[7] = system: whole-cell brain preparations; assay type: cell-based

## O=[N+]([O-])c1ccc(O)c([N+](=O)[O-])c1 [DNP, 2,4-dinitrophenol]
[1]
  mitochondrial uncoupling (oxygen consumption): uncoupled both tissues
[2]
  mitochondrial uncoupling (oxygen consumption): uncoupled both tissues
Rats [3]
  lowest dose where systemic toxicities may be observed: 25 mg/kg
  mortality acutely after IP injection: rapid dose-dependent mortality
  rectal temperature after IP injection: large, dose-dependent increase
Rats [3]; ip
  doses causing increase in rectal temperatures and mortality: above 10 mg/kg
Rats [4]
  ratio of effective to toxic dose: 0.2
  toxic threshold of chronic treatment: 1 mg/kg
[5]
  peak DNP liver concentrations: ~60 µM
  peak plasma DNP concentration: ~120 µM
  peak plasma DNP concentrations: ~380 µM
  time of peak plasma concentrations of DNP after injection: 1 h
[6]
  lowest dose effective at lowering liver TAG: 5 mg/kg
[7]
  uncoupling: neither DNP nor DNPME was found to uncouple
